Test results from patent publication US8785655B2, “Ionic liquid solvents” (Dublin City University, priority 2009, dated 2014).
Where a name gives a salt, the structure may show the parent alone. Read-outs that look alike come from different tables or passages of the source.

Legend:
[1] = tested on: Pseudomonas Putida (CP1); assay: Toxicity of pyridinium CILs, IC50 against bacteria strains; format: cell-based; conditions: read-out: IC50 values
Experimental: (§1) KG 2013 and KG 2015 screened against 5 bacteria strains: Pseudomonas Putida (CP1), Pseudomonas Putida (KT2440), Escherichia Coli, Bacillus Subtilis, and Pseudomonas Fluorescens. KG 1043 screened against 4 strains Pseudomonas Putida (CP1), Pseudomonas Putida (KT2440), Escherichia Coli, and Pseudomonas Fluorescens. All 3 pyridinium ionic liquids have low antimicrobial toxicity (IC50>1 mM).

[2] = tested on: Bacillus Subtilis; assay: as above; format: cell-based; conditions: read-out: IC50 values
Experimental: as §1

[3] = tested on: Escherichia Coli; assay: as above; format: cell-based; conditions: read-out: IC50 values
Experimental: as §1

[4] = tested on: Pseudomonas Putida (KT2440); assay: as above; format: cell-based; conditions: read-out: IC50 values
Experimental: as §1

[5] = tested on: Pseudomonas Fluorescens; assay: as above; format: cell-based; conditions: read-out: IC50 values
Experimental: as §1

[6] = tested on: Staphylococcus aureus CCM 4516/08; assay: Screen against bacteria, MIC/IC80; format: cell-based; conditions: SA
[7] = tested on: Candida albicans ATCC 44859; assay: In vitro antifungal activity, MIC by microdilution (NCCLS M27-A)
[8] = tested on: Absidia corymbifera 272; assay: as above; conditions: AC
Experimental: (§2) In vitro antifungal activities of the compounds were evaluated on the collection of fungal strains deposited at the Department of Biological and Medical Sciences, Faculty of Pharmacy, Charles University, Czech Republic. All the isolates were maintained on Sabouraud dextrose agar prior to being tested.
(§3) Minimum inhibitory concentrations (MICs) were determined by the microdilution format of the NCCLS M27-A guidelines. […] RPMI 1640 (Sevapharma, Prague) medium supplemented with L-glutamine and buffered with 0.165 M morpholinepropanesulfonic acid to pH 7.0 was used as the test medium. The wells of the microdilution tray contained 100 μl of the RPMI 1640 medium with 2-fold serial dilutions of the compounds (1000 to 0.24 μmol/l for the new compounds) and 100 μl of inoculum suspension. Fungal inoculum in RPMI 1640 was prepared to give a final concentration of 5×103±0.2 cfu·ml-1. The trays were incubated at 35° C. and MICs were read visually for filamentous fungi and photometrically for yeasts as an optical density (OD) at 540 nm after 24 h and 48 h. The MICs were defined as 80% inhibition of the growth of control. MICs were determined twice and in duplicate. The deviations from the usually obtained were no higher than the nearest concentration value up and down the dilution scale.

[9] = tested on: Aspergillus fumigatus 231; assay: as above; conditions: AF
[10] = tested on: Staphylococcus aureus H 5996/08 Methiciline-resistant; assay: Screen against bacteria, MIC/IC80; format: cell-based; conditions: MRSA
[11] = tested on: Trichophyton mentagrophytes 445; assay: In vitro antifungal activity, MIC by microdilution (NCCLS M27-A); conditions: TM
[12] = tested on: Candida parapsilosis ATCC 22019; assay: as above; conditions: CP
[13] = tested on: Klebsiella pneumoniae J 14368/08 ESBL-positive; assay: Screen against bacteria, MIC/IC80; format: cell-based; conditions: KP-E
[14] = tested on: Candida krusei ATCC 6258; assay: In vitro antifungal activity, MIC by microdilution (NCCLS M27-A)
Experimental: as §2, §3

[15] = tested on: Candida krusei E28; assay: as above
[16] = tested on: Enterococcus sp. J 14365/08; assay: Screen against bacteria, MIC/IC80; format: cell-based; conditions: EF
[17] = tested on: Candida lusitaniae 2446/l; assay: In vitro antifungal activity, MIC by microdilution (NCCLS M27-A); conditions: CL
Experimental: as §2, §3

[18] = tested on: fungi and bacteria; format: cell-based
Experimental: All the 12 bromide salts and 12 octylsulfate CILs in the table below were screened against fungi and bacteria.
CILs with bromide as anion have been screened against the following Fungi and bacteria:
. […] MICs were determined twice and in duplicate.

[19] = tested on: Klebsiella pneumoniae D 11750/08; assay: Screen against bacteria, MIC/IC80; format: cell-based; conditions: KP
[20] = tested on: Escherichia coli CCM4517; assay: Screen against bacteria, MIC/IC80; format: cell-based; conditions: EC
[21] = tested on: Candida tropicalis 156; assay: In vitro antifungal activity, MIC by microdilution (NCCLS M27-A); conditions: CT
Experimental: as §2, §3

[22] = tested on: Pseudomonas aeruginosa CCM 1961; assay: Screen against bacteria, MIC/IC80; format: cell-based; conditions: PA
[23] = tested on: Staphylococcus epidermidis H 6966/08; assay: Screen against bacteria, MIC/IC80; format: cell-based; conditions: SE
[24] = tested on: Candida albicans ATCC 90028; assay: In vitro antifungal activity, MIC by microdilution (NCCLS M27-A)
Experimental: as §2, §3

[25] = tested on: Candida glabrata 20/l; assay: as above; conditions: CG

COC(=O)C(c1ccc2c(c1)OCO2)[n+]1ccccc1 (centres unmarked) [KG 2015, RS-2-(3,4-methylendioxyphenyl)-2-(pyridinium) methyl acetate, bromide salt]
IC50 ([1]; P. Putida (CP1)): > 1000 µM | IC50 ([2]; B. Subtilis): > 1000 µM | IC50 ([3]; E. Coli): > 1000 µM | IC50 ([4]; P. Putida (KT2440)): > 1000 µM | IC50 ([5]; P. Fluorescens): > 1000 µM

CCCCCCCCOS(=O)(=O)[O-].CCCCCOC(=O)C(OC(=O)Cn1cc[n+](C)c1)c1ccccc1 (centres unmarked) [KG304, RS-3-methyl-1-[1-(pentoxycarbonyl)-1-phenylmethoxycarbonylmethyl]imidazolium octyl sulphate]
MIC/IC80 ([6]; 24 h): 1000 µM | MIC/IC80 ([6]; 48 h): 1000 µM | MIC/IC80 ([7]; CA1, 24 h): 1000 µM | MIC/IC80 ([7]; CA1, 48 h): 1000 µM | MIC/IC80 ([8]; 24 h): 1000 µM | MIC/IC80 ([8]; 48 h): 1000 µM | MIC/IC80 ([9]; 24 h): 500 µM | MIC/IC80 ([9]; 48 h): >1000 µM | MIC/IC80 ([10]; 24 h): >1000 µM | MIC/IC80 ([10]; 48 h): >1000 µM | MIC/IC80 ([11]; 72 h): 250 µM | MIC/IC80 ([11]; 120 h): 500 µM | MIC/IC80 ([12]; 24 h): >1000 µM | MIC/IC80 ([12]; 48 h): >1000 µM | MIC/IC80 ([13]; 24 h): >1000 µM | MIC/IC80 ([13]; 48 h): >1000 µM | MIC/IC80 ([14]; CK1, 24 h): 1000 µM | MIC/IC80 ([14]; CK1, 48 h): >1000 µM | MIC/IC80 ([15]; CK2, 24 h): >1000 µM | MIC/IC80 ([15]; CK2, 48 h): >1000 µM | MIC/IC80 ([16]; 24 h): >1000 µM | MIC/IC80 ([16]; 48 h): >1000 µM | MIC/IC80 ([17]; 24 h): >1000 µM | MIC/IC80 ([17]; 48 h): >1000 µM | toxicity / inhibition of the growth of fungi and bacteria [18]: inhibit the growth of fungi and bacteria | MIC/IC80 ([19]; 24 h): >1000 µM | MIC/IC80 ([19]; 48 h): >1000 µM | MIC/IC80 ([20]; 24 h): >1000 µM | MIC/IC80 ([20]; 48 h): >1000 µM | MIC/IC80 ([21]; 24 h): >1000 µM | MIC/IC80 ([21]; 48 h): >1000 µM | MIC/IC80 ([22]; 24 h): >1000 µM | MIC/IC80 ([22]; 48 h): >1000 µM | MIC/IC80 ([23]; 24 h): 1000 µM | MIC/IC80 ([23]; 48 h): >1000 µM | MIC/IC80 ([24]; CA2, 24 h): >1000 µM | MIC/IC80 ([24]; CA2, 48 h): >1000 µM | MIC/IC80 ([25]; 24 h): >1000 µM | MIC/IC80 ([25]; 48 h): >1000 µM

CCCCOC(=O)C(OC(=O)C[n+]1ccccc1)c1ccc2c(c1)OCO2 (centres unmarked) [KG 1043, RS-[1-(butoxycarbonyl)-1-(3,4-methylenedioxyphenyl)methoxycarbonylmethyl]pyridinium bromide]
IC50 ([1]; P. Putida (CP1)): > 1000 µM | IC50 ([3]; E. Coli): > 1000 µM | IC50 ([4]; P. Putida (KT2440)): > 1000 µM | IC50 ([5]; P. Fluorescens): > 1000 µM

COC(=O)C(c1ccc(OC)c(OC)c1)[n+]1ccccc1 (centres unmarked) [KG 2013, RS-2-(3,4-dimethoxyphenyl)-2-(pyridinium) methyl acetate, chloride salt]
IC50 ([1]; Pseudomonas putida): > 1000 µM | IC50 ([2]; Bacillus subtilis): > 1000 µM | IC50 ([3]; Escherichia coli): > 1000 µM | IC50 ([4]; Pseudomonas putida): > 1000 µM | IC50 ([5]; Pseudomonas fluorescens): > 1000 µM

CCCCCCCCOS(=O)(=O)[O-].CCCCCOC(=O)[C@@H](OC(=O)Cn1cc[n+](C)c1)c1ccccc1 [KG302, S-3-methyl-1-[1-(pentoxycarbonyl)-1-phenylmethoxycarbonylmethyl]imidazolium octyl sulphate]
MIC/IC80 ([6]; 24 h): >1000 µM | MIC/IC80 ([6]; 48 h): >1000 µM | MIC/IC80 ([7]; CA1, 24 h): 1000 µM | MIC/IC80 ([7]; CA1, 48 h): 1000 µM | MIC/IC80 ([8]; 24 h): 1000 µM | MIC/IC80 ([8]; 48 h): >1000 µM | MIC/IC80 ([9]; 24 h): 1000 µM | MIC/IC80 ([9]; 48 h): >1000 µM | MIC/IC80 ([10]; 24 h): >1000 µM | MIC/IC80 ([10]; 48 h): >1000 µM | MIC/IC80 ([11]; 72 h): 250 µM | MIC/IC80 ([11]; 120 h): 500 µM | MIC/IC80 ([12]; 24 h): >1000 µM | MIC/IC80 ([12]; 48 h): >1000 µM | MIC/IC80 ([13]; 24 h): >1000 µM | MIC/IC80 ([13]; 48 h): >1000 µM | MIC/IC80 ([14]; CK1, 24 h): >1000 µM | MIC/IC80 ([14]; CK1, 48 h): >1000 µM | MIC/IC80 ([15]; CK2, 24 h): >1000 µM | MIC/IC80 ([15]; CK2, 48 h): >1000 µM | MIC/IC80 ([16]; 24 h): >1000 µM | MIC/IC80 ([16]; 48 h): >1000 µM | MIC/IC80 ([17]; 24 h): >1000 µM | MIC/IC80 ([17]; 48 h): >1000 µM | toxicity / inhibition of the growth of fungi and bacteria [18]: inhibit the growth of fungi and bacteria | MIC/IC80 ([19]; 24 h): >1000 µM | MIC/IC80 ([19]; 48 h): >1000 µM | MIC/IC80 ([20]; 24 h): >1000 µM | MIC/IC80 ([20]; 48 h): >1000 µM | MIC/IC80 ([21]; 24 h): >1000 µM | MIC/IC80 ([21]; 48 h): >1000 µM | MIC/IC80 ([22]; 24 h): >1000 µM | MIC/IC80 ([22]; 48 h): >1000 µM | MIC/IC80 ([23]; 24 h): 1000 µM | MIC/IC80 ([23]; 48 h): >1000 µM | MIC/IC80 ([24]; CA2, 24 h): >1000 µM | MIC/IC80 ([24]; CA2, 48 h): >1000 µM | MIC/IC80 ([25]; 24 h): >1000 µM | MIC/IC80 ([25]; 48 h): >1000 µM
